Results as given in US9682940B2, “Indazole derivatives useful as CB-1 inverse agonists” (Janssen Pharmaceutica NV, priority 2015, dated 2017).

Assays:
[1] = target: Human CB2R (Cannabanoid receptor 2) (Homo sapiens (Human), UniProt P34972); assay: CB-2 in vitro cAMP (HTRF) assay in HEK-293 cells; type: cell-based; conditions: HEK-293 cells stably transfected with human CB2R, 250 nM Forskolin, mean where tested more than once, read-out: CB-2 (HEK_cAMP) EC50
Method in brief: (§1)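 HEK-293 cells stably expressing human CB1 or CB2 plated overnight, then tested in HBSS/5 mM HEPES/0.1% BSA with 0.5 mM IBMX and forskolin (1.5 μM working dilution). Intracellular cAMP quantified by competitive HTRF immunoassay (d2-cAMP, cryptate anti-cAMP) against a cAMP standard curve; compounds as 1/3 serial dilutions from 10 mM DMSO stocks.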

[2] = target: Human CB1R (Cannabanoid receptor 1) (Homo sapiens (Human), UniProt P21554); assay: CB-1 in vitro cAMP (HTRF) assay in HEK-293 cells; type: cell-based; conditions: HEK-293 cells stably transfected with human CB1R, 250 nM Forskolin, mean where tested more than once, read-out: CB-1 (HEK_cAMP) EC50
Human CB1R (Cannabanoid receptor 1), sequence (P21554 whole entry): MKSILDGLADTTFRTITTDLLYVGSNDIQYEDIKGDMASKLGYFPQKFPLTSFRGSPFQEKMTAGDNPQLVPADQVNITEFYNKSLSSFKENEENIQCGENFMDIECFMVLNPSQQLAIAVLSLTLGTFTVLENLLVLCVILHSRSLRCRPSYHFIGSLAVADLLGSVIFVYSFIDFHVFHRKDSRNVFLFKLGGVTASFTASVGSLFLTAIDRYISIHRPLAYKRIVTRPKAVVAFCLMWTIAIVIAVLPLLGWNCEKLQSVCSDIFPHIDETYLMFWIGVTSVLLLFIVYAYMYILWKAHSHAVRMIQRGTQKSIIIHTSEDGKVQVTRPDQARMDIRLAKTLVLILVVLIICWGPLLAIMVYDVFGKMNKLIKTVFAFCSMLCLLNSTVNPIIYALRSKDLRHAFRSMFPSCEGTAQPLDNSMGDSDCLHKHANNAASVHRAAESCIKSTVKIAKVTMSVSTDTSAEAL
Method in brief: as §1

Human CB2R (Cannabanoid receptor 2), sequence (P34972 whole entry): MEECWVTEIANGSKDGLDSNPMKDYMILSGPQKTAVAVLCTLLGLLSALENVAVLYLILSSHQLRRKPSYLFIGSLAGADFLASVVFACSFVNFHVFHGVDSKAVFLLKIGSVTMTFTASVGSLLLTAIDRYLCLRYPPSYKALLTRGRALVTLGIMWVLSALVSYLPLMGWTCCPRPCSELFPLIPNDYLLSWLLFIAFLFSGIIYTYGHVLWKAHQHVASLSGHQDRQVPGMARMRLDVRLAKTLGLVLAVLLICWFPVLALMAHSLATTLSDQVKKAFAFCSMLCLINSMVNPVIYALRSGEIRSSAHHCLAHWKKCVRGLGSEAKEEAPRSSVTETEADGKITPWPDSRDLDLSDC

Row | Compound | EC50 [1] | EC50 [2]
1 | NC(=O)COc1ccc(N2CCC(c3nn(C4CC4)c4ccc(C(c5ccc(Cl)cc5)c5ccc(Cl)cc5)cc34)CC2)cc1 [Compound 175] | > 10000 nM | 1130 nM
2 | O=S(=O)(N1CCC(c2nn(C3CC3)c3ccc(C(c4ccc(Cl)cc4)c4ccc(Cl)cc4)cc23)CC1)C(F)(F)F [Compound 105] | > 10000 nM | 8 nM
3 | O=C(O)c1ccc(CN2CCC(c3nn(C4CC4)c4ccc(C(c5ccc(Cl)cc5)c5ccc(Cl)cc5)cc34)CC2)cc1 [Compound 209] | > 10000 nM | 68 nM
4 | O=C(O)c1ccc(C(c2ccc(Cl)cc2)c2ccc3nn(C4CC4)c(C4CCN(S(=O)(=O)C(F)(F)F)CC4)c3c2)cc1 (stereo not drawn) [Compound 238, 4-[(4-chlorophenyl) ([2-cyclopropyl-3-[1-(trifluoromethane)sulfonylpiperidin-4-yl]-2H-indazol-5-yl])methyl]benzoic acid] | > 10000 nM | 198 nM
5 | NC(=O)c1ccc(-n2nc(C3CCN(S(=O)(=O)C(F)(F)F)CC3)c3cc(C(c4ccc(Cl)cc4)c4ccc(Cl)cc4)ccc32)cc1 [Compound 205] | 2120 nM | 6 nM
6 | O=C(c1nnn[nH]1)N1CCC(c2n[nH]c3ccc(C(c4ccc(Cl)cc4)c4ccc(Cl)cc4)cc23)CC1 [Compound 143] | > 10000 nM | 1010 nM
7 | NC(=O)CCC(=O)N1CCC(c2nn(C3CC3)c3ccc(C(c4ccc(Cl)cc4)c4ccc(Cl)cc4)cc23)CC1 [Compound 92] | > 10000 nM | 29 nM
8 | O=C(O)COc1ccc(N2CCC(c3n[nH]c4ccc(C(c5ccc(Cl)cc5)c5ccc(Cl)cc5)cc34)CC2)cc1 [Compound 211] | > 10000 nM | 4690 nM
9 | O=C(CO)N1CCC(c2nn(C3CC3)c3ccc(C(c4ccc(Cl)cc4)c4ccc(Cl)cc4)cc23)CC1 [Compound 91] | > 10000 nM | 39 nM
10 | COC(=O)c1ccc(S(=O)(=O)N2CCC(c3n[nH]c4ccc(C(c5ccc(Cl)cc5)c5ccc(Cl)cc5)cc34)CC2)o1 [Compound 260] | > 42000 nM | 25 nM
11 | O=S(=O)(N1CCN(c2nn(S(=O)(=O)C(F)(F)F)c3ccc(C(c4ccc(Cl)cc4)c4ccc(Cl)cc4)cc23)CC1)C(F)(F)F [Compound 29] | > 10000 nM | 1490 nM
12 | NC(=O)COc1cccc(N2CCC(c3nn(C4CC4)c4ccc(C(c5ccc(Cl)cc5)c5ccc(Cl)cc5)cc34)CC2)c1 [Compound 199] | > 10000 nM | 158 nM
13 | O=C(O)c1ccc(S(=O)(=O)N2CCC(c3nn(CCO)c4ccc(C(c5ccc(Cl)cc5)c5ccc(Cl)cc5)cc34)CC2)cc1 [Compound 80] | > 10000 nM | 374 nM
14 | CC(C)(C)OC(=O)N1CCC(Nc2n[nH]c3ccc(C(c4ccc(Cl)cc4)c4ccc(Cl)cc4)cc23)CC1 [Compound 74] | > 10000 nM | 162 nM
15 | NC(=O)c1ccc(CN2CCC(c3n[nH]c4ccc(C(c5ccc(Cl)cc5)c5ccc(Cl)cc5)cc34)CC2)cc1 [Compound 222] | > 10000 nM | 163 nM
16 | O=S(=O)(N1CCC(Nc2n[nH]c3ccc(C(c4ccc(Cl)cc4)c4ccc(Cl)cc4)cc23)CC1)C(F)(F)F [Compound 77] | > 10000 nM | 60 nM

Row | Compound | EC50 [1] | EC50 [2]
17 | O=S(=O)(N1CCC(c2n[nH]c3ccc(C(c4ccc(Cl)cc4)c4ccc(Cl)cc4)cc23)CC1)C(F)(F)F [Compound 173] | 5780 nM | 7 nM
18 | O=C(O)c1ccc(CN2CCC(c3c4cc(C(c5ccc(Cl)cc5)c5ccc(Cl)cc5)ccc4nn3C3CC3)CC2)nc1 [Compound 252] | > 10000 nM | 77 nM
19 | NC(=O)c1ccccc1Cn1nc(N2CCN(S(=O)(=O)C(F)(F)F)CC2)c2cc(C(c3ccc(Cl)cc3)c3ccc(Cl)cc3)ccc21 [Compound 55] | > 10000 nM | 649 nM
20 | O=C(O)c1ccccc1S(=O)(=O)N1CCC(c2n[nH]c3ccc(C(c4ccc(Cl)cc4)c4ccc(Cl)cc4)cc23)CC1 [Compound 34] | 7500 nM | 6030 nM
21 | O=S(=O)(N1CCC(c2n[nH]c3ccc(C(c4ccc(Cl)cc4)C4CCCC4)cc23)CC1)C(F)(F)F (stereo not drawn) [Compound 279] | > 42000 nM | 785 nM
22 | O=C(O)Cc1cccc(N2CCC(c3nn(C4CC4)c4ccc(C(c5ccc(Cl)cc5)c5ccc(Cl)cc5)cc34)CC2)c1 [Compound 180] | > 10000 nM | 6550 nM
23 | O=C(O)c1ccc([C@H](c2ccc(Cl)cc2)c2ccc3[nH]nc(C4CCN(S(=O)(=O)C(F)(F)F)CC4)c3c2)cc1 [Compound 231] | > 10000 nM | 4200 nM
24 | O=C(O)CCS(=O)(=O)N1CCC(c2nn(CCO)c3ccc(C(c4ccc(Cl)cc4)c4ccc(Cl)cc4)cc23)CC1 [Compound 83] | > 10000 nM | 1570 nM
25 | O=S(=O)(N1CCC(c2nn(-c3cccc(Cl)c3)c3ccc(C(c4ccc(Cl)cc4)c4ccc(Cl)cc4)cc23)CC1)C(F)(F)F [Compound 47] | > 10000 nM | 41 nM
26 | O=C(CC(F)(F)F)N1CCC(c2n[nH]c3ccc(C(c4ccc(Cl)cc4)c4ccc(Cl)cc4)cc23)CC1 [Compound 56] | > 10000 nM | 72 nM
27 | O=C(O)c1ccc(S(=O)(=O)N2CCC(c3n[nH]c4ccc(C(c5ccc(Cl)cc5)c5ccc(Cl)cc5)cc34)C2)cc1 (stereo not drawn) [Compound 269] | > 10000 nM | 590 nM
28 | O=C(CCO)N1CCC(c2nn(C3CC3)c3ccc(C(c4ccc(Cl)cc4)c4ccc(Cl)cc4)cc23)CC1 [Compound 108] | > 10000 nM | 37 nM
29 | Cc1ccc(C(c2ccc(Cl)cc2)c2ccc3c(c2)c(C2CCN(Cc4cccc(C(=O)O)c4)CC2)nn3C2CC2)cc1 (stereo not drawn) [Compound 247] | > 10000 nM | 20 nM
30 | O=C(O)c1cccc(CN2CCC(c3nn(C4CC4)c4ccc(C(c5ccc(Cl)cc5)c5ccc(C(F)(F)F)cc5)cc34)CC2)c1 (stereo not drawn) [Compound 248] | > 10000 nM | 41 nM
31 | O=C(O)c1ccc(C(O)(c2ccc(Cl)cc2)c2ccc3[nH]nc(C4CCN(S(=O)(=O)C(F)(F)F)CC4)c3c2)cc1 (stereo not drawn) [Compound 187] | > 10000 nM | 3040 nM

Results, then the molecule that gave them:

Row | EC50 [1] | EC50 [2] | Compound
32 | 6990 nM | 32 nM | NC(=O)COc1cccc(N2CCC(c3c4cc(C(c5ccc(Cl)cc5)c5ccc(Cl)cc5)ccc4nn3C3CC3)CC2)c1 [Compound 195, 2-(3-(4-(5-(bis(4-chlorophenyl)methyl)-2-cyclopropyl-2H-indazol-3-yl)piperidin-1-yl)phenoxy)acetamide]
33 | 9900 nM | 283 nM | NC(=O)c1ccc(C(=O)N2CCC(c3c4cc(C(c5ccc(Cl)cc5)c5ccc(Cl)cc5)ccc4nn3C3CC3)CC2)cc1 [Compound 114]
34 | > 10000 nM | 93 nM | NC(=O)c1cccc(N2CCC(c3nn(C4CC4)c4ccc(C(c5ccc(Cl)cc5)c5ccc(Cl)cc5)cc34)CC2)c1 [Compound 179]
35 | > 10000 nM | 617 nM | O=C(O)C(=O)N1CCC(c2c3cc(C(c4ccc(Cl)cc4)c4ccc(Cl)cc4)ccc3nn2C2CC2)CC1 [Compound 126]
36 | > 10000 nM | 3 nM | O=C(O)c1ccc(S(=O)(=O)N2CCC(c3c4cc(C(c5ccc(Cl)cc5)c5ccc(Cl)cc5)ccc4nn3C3CC3)CC2)o1 [Compound 171, 5-(4-(5-(bis(4-chlorophenyl)methyl)-2-cyclopropyl-2H-indazol-3-yl)piperidin-1-ylsulfonyl)furan-2-carboxylic acid]
37 | > 10000 nM | 4 nM | CNC(=O)c1ccc(S(=O)(=O)N2CCC(c3c4cc(C(c5ccc(Cl)cc5)c5ccc(Cl)cc5)ccc4nn3C3CC3)CC2)cc1Cl [Compound 154, 4-(4-(5-(bis(4-chlorophenyl)methyl)-2-cyclopropyl-2H-indazol-3-yl)piperidin-1-ylsulfonyl)-2-chloro-N-methylbenzamide]
38 | > 10000 nM | 7 nM | COc1cccc(S(=O)(=O)N2CCC(c3c4cc(C(c5ccc(Cl)cc5)c5ccc(Cl)cc5)ccc4nn3C3CC3)CC2)c1 [Compound 150, 5-(bis(4-chlorophenyl)methyl)-2-cyclopropyl-3-(1-(3-methoxyphenylsulfonyl)piperidin-4-yl)-2H-indazole]
39 | > 10000 nM | 587 nM | NC(=O)C(=O)N1CCC(c2c3cc(C(c4ccc(Cl)cc4)c4ccc(Cl)cc4)ccc3nn2C2CC2)CC1 [Compound 138]
40 | > 10000 nM | 6120 nM | NC(=O)c1ccccc1C(=O)N1CCC(c2c3cc(C(c4ccc(Cl)cc4)c4ccc(Cl)cc4)ccc3nn2C2CC2)CC1 [Compound 141]
41 | > 10000 nM | 4240 nM | O=C(O)c1ccc(C(=O)N2CCC(c3c4cc(C(c5ccc(Cl)cc5)c5ccc(Cl)cc5)ccc4nn3C3CC3)CC2)cc1 [Compound 113]
42 | > 10000 nM | 7 nM | NC(=O)c1ccc(C(=O)N2CCC(c3nn(C4CC4)c4ccc(C(c5ccc(Cl)cc5)c5ccc(Cl)cc5)cc34)CC2)cc1 [Compound 104]
43 | 7990 nM | 5 nM | O=C(O)c1cccc(S(=O)(=O)N2CCC(c3c4cc(C(c5ccc(Cl)cc5)c5ccc(Cl)cc5)ccc4nn3C3CC3)CC2)c1 [Compound 116, 3-(4-(5-(bis(4-chlorophenyl)methyl)-2-cyclopropyl-2H-indazol-3-yl)piperidin-1-ylsulfonyl)benzoic acid]
44 | 4400 nM | 5 nM | O=C(O)c1ccc(S(=O)(=O)N2CCC(c3c4cc(C(c5ccc(Cl)cc5)c5ccc(Cl)cc5)ccc4nn3C3CC3)CC2)cn1 [Compound 160, 5-(4-(5-(bis(4-chlorophenyl)methyl)-2-cyclopropyl-2H-indazol-3-yl)piperidin-1-ylsulfonyl)picolinic acid]
45 | > 10000 nM | 77 nM | O=C(O)c1cccc(N2CCC(c3c4cc(C(c5ccc(Cl)cc5)c5ccc(Cl)cc5)ccc4nn3C3CC3)CC2)c1 [Compound 183]
